According to patent US11970504B1, “2-benzo-[3,4-b] quinolino-{b,g]indeno [1′,2′:3,4] fluoreno-[1,2-d] Oxonine-5,11,16,21-tetraone as an antimicrobial compound” (KING FAISAL UNIVERSITY, priority 2023, dated 2024):

Tests used:
[1] = system: Staphylococcus aureus; test: Antimicrobial screening by agar dilution, Staphylococcus aureus; type: cell-based; settings: after 10, 20, 40 and 60 minutes at all dilutions 1:100, 1:200, 1:400, 1:800
Experimental: (§1) The antibacterial properties of the synthesized compound 2-benzo-[3,4-b]quinolino-[b,g]indeno[1′,2′:3,4]fluoreno-[1,2-d]oxonine-5,11,16,21-tetraone were studied by the method of agar dilution. Test solutions of each compound was prepared in concentration of 1% using dimethylformamide as a solvent then they are diluted in physiological solution to obtain the final experimental dilutions 1:100, 1:200, 1:400, 1:800. The effect of these substances are compared with furacillin in a controllable study. The testing microbes used were gram positive bacteria Staphylococcus aureus, gram negative bacteria Pseudomonas aeruginosa and Escherichia co/i and Candida albicans fungus. The experiments used for this survey were meat-pentonlu agar (EPA) for cultivation of bacteria and Saburo environment for the fungus. Each experiment used 1 mL of test solution on each plate […]. Two drops of emulsified with microbes feel were added. All experimental samples were taken from the agar after 10, 20, 40, 60 minutes in the environment on the basis of Patrk planted. The bacteria were cultivated at a temperature of 37° C. for 1 day and the mushroom was kept in a thermostat for […] at a temperature of 28° C. Then results were checked.

[2] = system: Candida albicans; test: Antimicrobial screening by agar dilution, Candida albicans; type: cell-based; settings: after 10, 20, 40 and 60 minutes at all dilutions 1:100, 1:200, 1:400, 1:800
Experimental: as §1

[3] = system: Pseudomonas aeruginosa; test: Antimicrobial screening by agar dilution, Pseudomonas aeruginosa; type: cell-based; settings: after 10, 20, 40 and 60 minutes at all dilutions 1:100, 1:200, 1:400, 1:800
Experimental: as §1

[4] = system: Escherichia coli; test: Antimicrobial screening by agar dilution, Escherichia coli; type: cell-based; settings: after 10, 20, 40 and 60 minutes at all dilutions 1:100, 1:200, 1:400, 1:800
Experimental: as §1

O=C1Oc2nc3ccccc3cc2-c2c(c3c4ccccc4c(=O)c3c3c2c(=O)c2ccccc23)C(=O)c2ccccc21 [2-benzo-[3,4-b]quinolino-[b,g]indeno[1′,2′:3,4]fluoreno-[1,2-d]oxonine-5,11,16,21-tetraone]
inhibition activity [1]: highest inhibition activity
inhibition activity [2]: highest inhibition activity
melting point: 251 °C
inhibition activity [3]: highest inhibition activity
inhibition activity [4]: highest inhibition activity
